Laboratory results as given in patent US20070232698A1, “Slimming Skin External Preparation and Cosmetic Containing the Same” (priority 2004, published 2007).
Structures can show the parent of a compound that is named as a salt.

Each compound was assayed on Mouse 3T3-F442A cells (assay: Triglyceride accumulation in adipocytes with base acylcarnitine plus test substance (oil red staining)). Conditions: base hexadecanoyl-L-carnitine hydrochloride plus 50 μM test substance (ginkgo biloba extract 30 μg/ml; garcinia extract as hydroxycitric acid), 4 days; control = base alone.
Type: cell-based
Method: The incubation was continued for another 4 days. The control was incubated using a culture medium that contained the base alone (no test substances). After the 4-days incubation, the cells were washed three times with Dulbecco's PBS (−). The triglyceride amount accumulated in the cells was quantitatively determined by oil red staining. […] Mouse 3T3-F442A cells were incubated as described in Example 10, and differentiation into adipocytes was observed. […] The incubation was continued for another 4 days. The control was incubated using a culture medium that contained the base alone (no test substances). After the 4-days incubation, the cells were washed three times with Dulbecco's PBS (−). The triglyceride amount accumulated in the cells was quantitatively determined by oil red staining.

Row | Compound | accumulated triglyceride amount relative to the control (100%), Base Hexadecanoyl-L-carnitine hydrochloride [%]
1 | CCCCCCCCCCCCCC(=O)O [Myristic acid] | 99
2 | CC(C)Cn1c(=O)n(C)c(=O)c2[nH]cnc21 [3-Isobutyl-1-methylxanthine] | 50
3 | Cc1c(C)c2c(c(C)c1OC(=O)CN(C)C)CCC(C)(CCCC(C)CCCC(C)CCCC(C)C)O2.Cl (racemic) [dl-α-Tocopherol-N,N-dimethylglycine ester hydrochloride] | 98
4 | OCC(O)CO [Glycerol] | 118
5 | C[N+](C)(C)C[C@H](O)CC(=O)[O-].Cl [L-carnitine hydrochloride] | 99
6 | CC(C)NCC(O)c1ccc(O)c(O)c1 (stereo not shown) [Isoproterenol hydrochloride] | 60
7 | CCCCCCCCCCCCCCCC(=O)OC(CC(=O)O)(C(=O)O)C(O)C(=O)O (stereo not shown) [Hydroxycitric acid-2-palmitate] | 70
8 | CCCCCCCCCCCCCCCCCC(=O)O [Stearic acid] | 101
9 | Cn1c(=O)c2[nH]cnc2n(C)c1=O [Theophylline] | 62
10 | Calcium hydroxycitrate | 89
11 | CCCCCCCCCCCCCCCC(=O)O [Palmitic acid] | 102

Same assay, conditions: base octadecanoyl-L-carnitine hydrochloride plus 50 μM test substance (ginkgo biloba extract 30 μg/ml; garcinia extract as hydroxycitric acid), 4 days; control = base alone

Row | Compound | accumulated triglyceride amount relative to the control (100%), Base Octadecanoyl-L-carnitine hydrochloride [%]
12 | CCCCCCCCCCCCCC(=O)O [Myristic acid] | 98
13 | CC(C)Cn1c(=O)n(C)c(=O)c2[nH]cnc21 [3-Isobutyl-1-methylxanthine] | 57
14 | Cc1c(C)c2c(c(C)c1OC(=O)CN(C)C)CCC(C)(CCCC(C)CCCC(C)CCCC(C)C)O2.Cl (racemic) [dl-α-Tocopherol-N,N-dimethylglycine ester hydrochloride] | 99
15 | OCC(O)CO [Glycerol] | 113
16 | C[N+](C)(C)C[C@H](O)CC(=O)[O-].Cl [L-carnitine hydrochloride] | 102
17 | CC(C)NCC(O)c1ccc(O)c(O)c1 (stereo not shown) [Isoproterenol hydrochloride] | 64
18 | CCCCCCCCCCCCCCCC(=O)OC(CC(=O)O)(C(=O)O)C(O)C(=O)O (stereo not shown) [Hydroxycitric acid-2-palmitate] | 72
19 | CCCCCCCCCCCCCCCCCC(=O)O [Stearic acid] | 99
20 | Cn1c(=O)c2[nH]cnc2n(C)c1=O [Theophylline] | 58
21 | Calcium hydroxycitrate | 88
22 | CCCCCCCCCCCCCCCC(=O)O [Palmitic acid] | 100
